Where two headings read alike, the source gives them in different places.
How the values were obtained:
Pfeiffer cells = assay: Cell proliferation test (cell counting kit-8, 6 days); type: cell-based; details: 6 days' growth
Procedure: Cells were harvested by centrifuge and densities were determined using a CounterStar cell counter. Appropriate number of cells were plated in a 96-well culture plate and incubated overnight. Compounds to be tested were 1:3 diluted for 8 gradient points and added into corresponding wells. After 6 days' growth, cell counting kit-8 (Dojindo) was used to detect cell viability and absorbance values were read on Tecan infinite pro.

[1] = molecular target: Recombinant PRC2 (EZH2-Y641F) (Homo sapiens, UniProt Q15910, Y641F); assay: In vitro methyltransferase activity test (LANCE Ultra); details: LANCE Ultra detection, 3 hours reaction;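 further: compounds tested as an 8-point threefold dilution series, fluorescence read after 1 h detection step at room temperature, IC50 derived from a four-parameter curve fit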
Recombinant PRC2 (EZH2-Y641F), sequence (Q15910 whole entry Y641F): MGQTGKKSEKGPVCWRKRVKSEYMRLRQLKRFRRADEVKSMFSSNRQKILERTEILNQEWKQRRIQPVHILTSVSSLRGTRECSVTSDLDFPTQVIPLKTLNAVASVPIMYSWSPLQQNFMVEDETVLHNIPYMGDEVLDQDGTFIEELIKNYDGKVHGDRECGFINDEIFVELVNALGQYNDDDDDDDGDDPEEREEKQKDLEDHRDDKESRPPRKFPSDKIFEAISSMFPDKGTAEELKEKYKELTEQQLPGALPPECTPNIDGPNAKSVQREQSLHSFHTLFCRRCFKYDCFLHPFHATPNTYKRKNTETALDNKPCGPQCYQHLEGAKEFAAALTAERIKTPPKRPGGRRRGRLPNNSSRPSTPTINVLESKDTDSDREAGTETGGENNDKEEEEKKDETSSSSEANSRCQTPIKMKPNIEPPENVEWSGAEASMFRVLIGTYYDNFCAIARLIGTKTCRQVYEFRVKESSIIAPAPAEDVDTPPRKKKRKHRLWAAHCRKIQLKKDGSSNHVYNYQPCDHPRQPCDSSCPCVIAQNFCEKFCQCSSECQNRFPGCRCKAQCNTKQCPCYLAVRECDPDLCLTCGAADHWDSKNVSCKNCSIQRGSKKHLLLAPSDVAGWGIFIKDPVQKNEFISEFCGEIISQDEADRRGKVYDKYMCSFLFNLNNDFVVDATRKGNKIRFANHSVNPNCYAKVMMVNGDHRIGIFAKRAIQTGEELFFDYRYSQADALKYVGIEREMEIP
Recombinant PRC2 (EZH2-Y641F), sequence (O75530 whole entry partner): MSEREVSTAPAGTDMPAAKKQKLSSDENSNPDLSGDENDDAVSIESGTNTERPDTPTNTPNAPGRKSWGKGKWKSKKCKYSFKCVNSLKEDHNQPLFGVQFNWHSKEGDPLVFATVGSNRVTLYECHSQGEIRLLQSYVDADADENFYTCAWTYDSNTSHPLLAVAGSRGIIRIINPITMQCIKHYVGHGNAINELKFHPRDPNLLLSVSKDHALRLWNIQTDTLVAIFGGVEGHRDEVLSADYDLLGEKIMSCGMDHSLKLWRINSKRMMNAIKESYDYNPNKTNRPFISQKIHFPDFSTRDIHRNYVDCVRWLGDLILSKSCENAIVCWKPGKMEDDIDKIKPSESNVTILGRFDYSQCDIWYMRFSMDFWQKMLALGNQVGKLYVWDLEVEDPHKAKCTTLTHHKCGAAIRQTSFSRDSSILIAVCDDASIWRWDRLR
Recombinant PRC2 (EZH2-Y641F), sequence (Q15022 whole entry partner): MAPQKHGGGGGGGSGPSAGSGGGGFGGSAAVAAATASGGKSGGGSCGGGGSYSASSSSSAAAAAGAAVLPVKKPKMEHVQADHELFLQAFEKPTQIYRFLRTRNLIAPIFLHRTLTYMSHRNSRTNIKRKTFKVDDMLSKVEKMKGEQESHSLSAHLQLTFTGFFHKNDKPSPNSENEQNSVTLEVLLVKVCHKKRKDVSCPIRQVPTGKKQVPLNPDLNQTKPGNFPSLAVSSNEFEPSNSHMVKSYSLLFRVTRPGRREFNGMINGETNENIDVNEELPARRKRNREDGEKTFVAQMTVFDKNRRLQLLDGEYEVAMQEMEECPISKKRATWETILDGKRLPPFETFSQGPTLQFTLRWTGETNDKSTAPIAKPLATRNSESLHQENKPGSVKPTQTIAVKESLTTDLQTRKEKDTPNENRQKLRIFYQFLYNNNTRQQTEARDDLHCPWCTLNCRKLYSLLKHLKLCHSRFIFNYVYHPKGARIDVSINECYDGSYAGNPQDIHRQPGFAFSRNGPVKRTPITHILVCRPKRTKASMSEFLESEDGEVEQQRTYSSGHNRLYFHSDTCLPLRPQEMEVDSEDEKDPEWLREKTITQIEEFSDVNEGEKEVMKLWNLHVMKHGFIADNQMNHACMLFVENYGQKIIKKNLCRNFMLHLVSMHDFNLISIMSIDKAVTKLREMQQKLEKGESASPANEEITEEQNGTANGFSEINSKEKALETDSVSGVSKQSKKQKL
Recombinant PRC2 (EZH2-Y641F), sequence (Q09028 whole entry partner): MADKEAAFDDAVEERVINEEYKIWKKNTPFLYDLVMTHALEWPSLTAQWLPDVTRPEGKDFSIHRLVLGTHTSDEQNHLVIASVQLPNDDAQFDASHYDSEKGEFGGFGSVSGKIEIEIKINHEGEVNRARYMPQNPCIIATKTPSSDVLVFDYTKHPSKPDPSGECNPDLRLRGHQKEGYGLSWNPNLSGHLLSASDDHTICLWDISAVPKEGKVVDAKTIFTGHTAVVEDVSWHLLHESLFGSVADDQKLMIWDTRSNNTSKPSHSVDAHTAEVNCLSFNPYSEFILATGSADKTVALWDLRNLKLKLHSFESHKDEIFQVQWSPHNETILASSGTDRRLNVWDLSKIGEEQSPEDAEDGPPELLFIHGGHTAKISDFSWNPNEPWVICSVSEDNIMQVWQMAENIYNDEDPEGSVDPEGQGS
Recombinant PRC2 (EZH2-Y641F), sequence (Q6ZN18 whole entry partner): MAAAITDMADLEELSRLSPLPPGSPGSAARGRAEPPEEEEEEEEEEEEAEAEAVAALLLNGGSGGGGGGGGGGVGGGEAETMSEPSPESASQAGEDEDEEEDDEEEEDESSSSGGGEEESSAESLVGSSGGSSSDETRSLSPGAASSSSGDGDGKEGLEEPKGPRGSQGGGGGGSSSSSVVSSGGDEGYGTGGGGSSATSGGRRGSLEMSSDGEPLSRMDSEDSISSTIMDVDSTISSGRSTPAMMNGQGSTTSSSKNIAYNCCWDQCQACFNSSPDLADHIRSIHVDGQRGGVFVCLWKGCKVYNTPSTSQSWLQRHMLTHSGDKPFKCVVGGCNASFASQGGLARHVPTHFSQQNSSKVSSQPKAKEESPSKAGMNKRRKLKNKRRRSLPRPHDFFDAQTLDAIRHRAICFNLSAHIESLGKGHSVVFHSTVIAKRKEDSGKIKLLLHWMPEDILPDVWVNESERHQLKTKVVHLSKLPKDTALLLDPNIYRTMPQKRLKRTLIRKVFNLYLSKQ
Procedure: In Vitro Methyltransferase Activity Test
Recombinant PRC2 (EZH2-Y641F) was purchased from Active motif, S-adenosyl-methionine (SAM) and Poly-L-lysine (PLL) were purchased from Sigma-Aldrich, H3(1-50)K27mel polypeptide was purchased from Cisbio. LANCEUltra system (Perkinelmer) was used for detection. In the enzyme activity test, a compound to be tested was 1:3 diluted for 8 gradient points, added into a reaction plate, and then added 100 ng recombinant enzyme. And then a buffer [20 mM Tris pH8.5, 2 mM MgCl2, 0.01% Tween-20, 1 mM TCEP] containing 2.5 M SAM/250 nM H3(1-50)K27mel premixture was added to conduct an enzyme reaction at room tempreture. After reacted for 3 hours, a dection solution containing premixed PLL, detection antibody and Ulight was added, reacted for 1 h at RT, then fluorescence was read on Tecan infinite pro. IC50s were calculated by four-factor model fitting in a XLfit software.

[2] = EZH2 Y641F IC50, Recombinant PRC2 (EZH2-Y641F)
[3] = read-out: EZH2 Y641F IC50, Recombinant PRC2 (EZH2-Y641F)

Work on `CCN(c1cc(-c2ccc(CN3CCN(C)CC3)nc2)cc2c(NCc3c(C)cc(C)[nH]c3=O)nccc12)C1CCC(F)(F)CC1` [Compound Z-105] yielded an IC50 (Pfeiffer cells; Homo sapiens, Pfeiffer, 144 h) of 988 nM and an IC50 [1, 2] of 197 nM.

Work on `CCN(c1cc(-c2cnc(N3CCOCC3)nc2)cc2c(NCc3c(C)cc(C)[nH]c3=O)nccc12)[C@H]1CC[C@@H](O)CC1` [Compound Z-108] yielded an IC50 (Pfeiffer cells) of 612 nM and an IC50 [1, 3] of 283 nM.

Molecule `Cc1cc(C)c(CNc2nccc3c(N(C)C4CCC(N(C)C)CC4)cc(-c4ccc(N5CCN(C)CC5)nc4)cc23)c(=O)[nH]1` (stereo not drawn) [Compound Z-111] has an IC50 (Pfeiffer cells; Homo sapiens, Pfeiffer, 144 h) of 478 nM and an IC50 [1, 2] of 37 nM.

`CCN(c1cc(-c2ccc(CN3CCN(C(C)C)CC3)nc2)cc2c(NCc3c(C)cc(C)[nH]c3=O)nccc12)C1CCOCC1` [Compound Z-112] gave an IC50 (Pfeiffer cells; Homo sapiens, Pfeiffer, 144 h) of 595 nM and an IC50 [1, 2] of 96 nM.

`CCN(c1cc(-c2ccc(CN3CCOCC3)nc2)cc2c(NCc3c(C)cc(C)[nH]c3=O)nccc12)C1CCOCC1` [Compound Z-113] gave an IC50 (Pfeiffer cells; Homo sapiens, Pfeiffer, 144 h) of 713 nM and an IC50 [1, 2] of 153 nM.

`CCN(c1cc(-c2ccc(CN3CCN(C)C(=O)C3)nc2)cc2c(NCc3c(C)cc(C)[nH]c3=O)nccc12)C1CCOCC1` [Compound Z-114] was tested, and the IC50 (Pfeiffer cells; Homo sapiens, Pfeiffer, 144 h) was 788 nM and the IC50 [1, 2] was 84 nM.

Molecule `CCN(c1cc(-c2cnc(CN3CCN(C)CC3)nc2)cc2c(NCc3c(C)cc(C)[nH]c3=O)nccc12)C1CCOCC1` [Compound Z-115] has an IC50 (Pfeiffer cells; Homo sapiens, Pfeiffer, 144 h) of 706 nM and an IC50 [1, 2] of 47 nM.

Molecule `CCN(c1cc(-c2cnc(CN3CCN(C)CC3)c(F)c2)cc2c(NCc3c(C)cc(C)[nH]c3=O)nccc12)C1CCOCC1` [Compound Z-116] has an IC50 (Pfeiffer cells; Homo sapiens, Pfeiffer, 144 h) of 525 nM and an IC50 [1, 2] of 41 nM.

`CCN(c1cc(-c2ccc(CN3CCN(C)CC3)nc2)cc2c(NCc3c(C)cc(C)[nH]c3=O)nccc12)C1CCOCC1` [Compound Z-118] was tested, and the IC50 (Pfeiffer cells; Homo sapiens, Pfeiffer, 144 h) was 973 nM and the IC50 [1, 2] was 85 nM.

`CCN(c1cc(-c2cnc(CN3CCOCC3)nc2)cc2c(NCc3c(C)cc(C)[nH]c3=O)nccc12)C1CCOCC1` [Compound Z-121] showed an IC50 (Pfeiffer cells; Homo sapiens, Pfeiffer, 144 h) of 646 nM and an IC50 [1, 2] of 474 nM.

For `CCN(c1cc(-c2cnc(CN3CCOCC3)c(F)c2)cc2c(NCc3c(C)cc(C)[nH]c3=O)nccc12)C1CCOCC1` [Compound Z-122], the IC50 (Pfeiffer cells; Homo sapiens, Pfeiffer, 144 h) was 833 nM and the IC50 [1, 2] was 439 nM.

Molecule `CCN(c1cc(-c2cncc(F)c2)cc2c(NCc3c(C)cc(C)[nH]c3=O)nccc12)C1CCN(C(C)C)CC1` [Compound Z-125] has an IC50 (Pfeiffer cells; Homo sapiens, Pfeiffer, 144 h) of 772 nM and an IC50 [1, 2] of 22 nM.

Work on `CCN(c1cc(-c2ccccn2)cc2c(NCc3c(C)cc(C)[nH]c3=O)nccc12)C1CCN(C(C)C)CC1` [Compound Z-126] yielded an IC50 (Pfeiffer cells; Homo sapiens, Pfeiffer, 144 h) of 765 nM and an IC50 [1, 2] of 156 nM.

With `CCN(c1cc(Cl)cc2c(NCc3c(C)cc(C)[nH]c3=O)nccc12)C1CCC(N(C)C)CC1` (stereo not drawn) [Compound Z-132] the IC50 (Pfeiffer cells) was 301 nM and the IC50 [1, 3] was 107 nM.

Molecule `CCN(c1cc(Cl)cc2c(NCc3c(C)cc(C)[nH]c3=O)nccc12)[C@H]1CC[C@@H](N(C)C)CC1` [Compound Z-136] has an IC50 (Pfeiffer cells; Homo sapiens, Pfeiffer, 144 h) of 465 nM and an IC50 [1, 2] of 49 nM.

In the case of `CCN(c1cc(C#CCN2CCOCC2)cc2c(NCc3c(C)cc(C)[nH]c3=O)nccc12)C1CCC(N(C)C)CC1` (stereo not drawn) [Compound Z-177], the IC50 (Pfeiffer cells; Homo sapiens, Pfeiffer, 144 h) is reported as 444 nM and the IC50 [1, 2] is reported as 31 nM.

With `CCN(c1cc(C#CCN2CCOCC2)cc2c(NCc3c(C)cc(C)[nH]c3=O)nccc12)[C@H]1CC[C@@H](N(C)C)CC1` [Compound Z-179] the IC50 (Pfeiffer cells) was 540 nM and the IC50 [1, 3] was 15 nM.

`CCN(c1cc(C#CCN2CCN(C)CC2)cc2c(NCc3c(C)cc(C)[nH]c3=O)nccc12)C1CCC(N(C)C)CC1` (stereo not drawn) [Compound Z-180] showed an IC50 (Pfeiffer cells; Homo sapiens, Pfeiffer, 144 h) of 380 nM and an IC50 [1, 2] of 13 nM.

`CCN(c1cc(N(C)c2cccnc2)cc2c(NCc3c(C)cc(C)[nH]c3=O)nccc12)[C@H]1CC[C@H](N(C)C)CC1` [Compound Z-183] was tested, and the IC50 (Pfeiffer cells; Homo sapiens, Pfeiffer, 144 h) was 395 nM and the IC50 [1, 2] was 128 nM.

Molecule `CCN(c1cc(N(C)c2cccnc2)cc2c(NCc3c(C)cc(C)[nH]c3=O)nccc12)C1CCC(N(C)C)CC1` (stereo not drawn) [Compound Z-186] has an IC50 (Pfeiffer cells; Homo sapiens, Pfeiffer, 144 h) of 251 nM and an IC50 [1, 2] of 67 nM.

With `CCN(c1cc(-c2cnc(N3CCOCC3)nc2)cc2c(NCc3c(OC)cc(C)[nH]c3=O)nccc12)C1CCC(N(C)C)CC1` (stereo not drawn) [Compound Z-192] the IC50 (Pfeiffer cells; Homo sapiens, Pfeiffer, 144 h) was 393 nM and the IC50 [1, 2] was 42 nM.

With `CCN(c1cc(-c2ccc(N3CCN(C)CC3)nc2)cc2c(NCc3c(OC)cc(C)[nH]c3=O)nccc12)C1CCC(N(C)C)CC1` (stereo not drawn) [Compound Z-193] the IC50 (Pfeiffer cells; Homo sapiens, Pfeiffer, 144 h) was 620 nM and the IC50 [1, 2] was 21 nM.

Molecule `CCN(c1cc(-c2ccc(CN3CCN(C)CC3)nc2)cc2c(NCc3c(C)cc(C)[nH]c3=O)nccc12)C1CCC(O)CC1` (stereo not drawn) [Compound Z-196] has an IC50 (Pfeiffer cells; Homo sapiens, Pfeiffer, 144 h) of 583 nM and an IC50 [1, 2] of 16 nM.

`CCN(c1cc(Cl)cc2c(NCc3c(OC)cc(C)[nH]c3=O)nccc12)C1CCC(N(C)C)CC1` (stereo not drawn) [Compound Z-197] showed an IC50 (Pfeiffer cells; Homo sapiens, Pfeiffer, 144 h) of 371 nM and an IC50 [1, 2] of 51 nM.

`CCN(c1cc(Cl)cc2c(NCc3c(C)cc(C)[nH]c3=O)nccc12)C1CCNCC1` [Compound Z-201] was tested, and the IC50 (Pfeiffer cells; Homo sapiens, Pfeiffer, 144 h) was 133 nM and the IC50 [1, 2] was 59 nM.

Molecule `CCN(c1cc(OCCOC)cc2c(NCc3c(C)cc(C)[nH]c3=O)nccc12)C1CCC(N(C)C)CC1` (stereo not drawn) [Compound Z-206] has an IC50 (Pfeiffer cells; Homo sapiens, Pfeiffer, 144 h) of 234 nM and an IC50 [1, 2] of 115 nM.

Molecule `CCN(c1cc(Cl)cc2c(NCc3c(OC)cc(C)[nH]c3=O)nccc12)C1CCNCC1` [Compound Z-208] has an IC50 (Pfeiffer cells; Homo sapiens, Pfeiffer, 144 h) of 155 nM and an IC50 [1, 2] of 9 nM.

With `CCN(c1cc(Cl)cc2c(NCc3c(C)cc(C)[nH]c3=O)nccc12)C1CC2CCC(C1)N2` (stereo not drawn) [Compound Z-209] the IC50 (Pfeiffer cells; Homo sapiens, Pfeiffer, 144 h) was 250 nM and the IC50 [1, 2] was 10 nM.

`CCN(c1c(F)c(-c2ccc(N3CCN(C)CC3)nc2)cc2c(NCc3c(C)cc(C)[nH]c3=O)nccc12)C1CCC(N(C)C)CC1` (stereo not drawn) [Compound Z-218, 3-((5-((4-(dimethylamino)cyclohexyl) (ethyl)amino)-6-fluoro-7-(6-(4-methylpiperazin-1-yl)pyridin-3-yl)isoquinolin-1-ylamino)methyl)-4,6-dimethyl-2(1H)-one] was tested, and the IC50 (Pfeiffer cells; Homo sapiens, Pfeiffer, 144 h) was 212 nM and the IC50 [1, 2] was 28 nM.

For `CCN(c1cc(-c2ccc(N3CCN(C)CC3)nc2)cc2c(NCc3c(C)cc(C)[nH]c3=O)nccc12)C1CCNC(C)C1` (stereo not drawn) [Compound Z-220, 3-((5-(ethyl (2-methylpiperidin-4-yl)amino)-7-(6-(4-methylpiperazin-1-yl)pyridin-3-yl)isoquinolin-1-ylamino)methyl)-4,6-dimethylpyridine-2(1H)-one], the IC50 (Pfeiffer cells; Homo sapiens, Pfeiffer, 144 h) was 651 nM and the IC50 [1, 2] was 31 nM.

Molecule `CCOc1cc(N(CC)C2CCC(N(C)C)CC2)c2ccnc(NCc3c(C)cc(C)[nH]c3=O)c2n1` (stereo not drawn) [Compound Z-222, 3-((4-((4-(dimethylamino)cyclohexyl) (ethyl)amino)-2-ethoxy-1,7-naphthyridin-8-ylamino)methyl)-4,6-dimethyl-2(1H)-one] has an IC50 (Pfeiffer cells; Homo sapiens, Pfeiffer, 144 h) of 484 nM and an IC50 [1, 2] of 143 nM.

With `CCN(c1c(F)c(-c2ccc(N3CCN(C)CC3)nc2)cc2c(NCc3c(C)cc(C)[nH]c3=O)nccc12)C1CCOCC1` [Compound Z-224, 3-((5-(ethyl(tetrahydro-2H-pyran-4-yl)amino)-6-fluoro-7-(6-(4-methylpiperazin-1-yl)pyridin-3-yl)isoquinolin-1-ylamino)methyl)-4,6-dimethyl-2(1H)-one] the IC50 (Pfeiffer cells; Homo sapiens, Pfeiffer, 144 h) was 605 nM and the IC50 [1, 2] was 360 nM.

For `CCN(c1c(F)c(-c2ccc(N3CCN(C)CC3)nc2)cc2c(NCc3c(C)cc(C)nc3O)nccc12)[C@H]1CC[C@H](N(C)C)CC1` [Compound Z-232, 3-((5-(((1R,4R)-4-(dimethylamino)cyclohexyl) (ethyl)amino)-6-fluoro-7-(6-(4-methylpiperazin-1-yl)pyridin-3-yl)isoquinolin-1-ylamino)methyl)-4,6-dimethyl-2(1H)-one], the IC50 (Pfeiffer cells; Homo sapiens, Pfeiffer, 144 h) was 188 nM and the IC50 [1, 2] was 26 nM.
